# According to ChEMBL document CHEMBL3639182, “Nitrogen containing heteroaryl compounds” (2014):
# Target: cAMP and cAMP-inhibited cGMP 3',5'-cyclic phosphodiesterase 10A (Homo sapiens, UniProt Q9Y233)
# Assay: Scintillation Proximity Assay : PDE10 activity of the compounds of the present invention was determined using a Scintillation Proximity Assay (SPA)-based method similar to the one previously described (Fawcett, L. et al., Proc Natl Acad Sci USA (2000) 97(7):3702-3707). The human PDE10A full length assay was performed in 96-well micro titer plates. The reaction mixture of 50 μl contained 20 mM HEPES pH=7.5/10 mM MgCl2/0.05 mg/ml BSA (Sigma cat. # A-7906), 50 nM cGMP (Sigma, cat. # G6129) and 50 nM [3H]-cGMP (GE Healthcare, cat. # TRK392 S.A. 13.2 Ci/mmol), 3.75 ng/well PDE10A enzyme (Enzo Life Science, Lausen, Switzerland cat #SE-534) with or without a specific test compound.
# cAMP and cAMP-inhibited cGMP 3',5'-cyclic phosphodiesterase 10A, sequence (Q9Y233 whole entry): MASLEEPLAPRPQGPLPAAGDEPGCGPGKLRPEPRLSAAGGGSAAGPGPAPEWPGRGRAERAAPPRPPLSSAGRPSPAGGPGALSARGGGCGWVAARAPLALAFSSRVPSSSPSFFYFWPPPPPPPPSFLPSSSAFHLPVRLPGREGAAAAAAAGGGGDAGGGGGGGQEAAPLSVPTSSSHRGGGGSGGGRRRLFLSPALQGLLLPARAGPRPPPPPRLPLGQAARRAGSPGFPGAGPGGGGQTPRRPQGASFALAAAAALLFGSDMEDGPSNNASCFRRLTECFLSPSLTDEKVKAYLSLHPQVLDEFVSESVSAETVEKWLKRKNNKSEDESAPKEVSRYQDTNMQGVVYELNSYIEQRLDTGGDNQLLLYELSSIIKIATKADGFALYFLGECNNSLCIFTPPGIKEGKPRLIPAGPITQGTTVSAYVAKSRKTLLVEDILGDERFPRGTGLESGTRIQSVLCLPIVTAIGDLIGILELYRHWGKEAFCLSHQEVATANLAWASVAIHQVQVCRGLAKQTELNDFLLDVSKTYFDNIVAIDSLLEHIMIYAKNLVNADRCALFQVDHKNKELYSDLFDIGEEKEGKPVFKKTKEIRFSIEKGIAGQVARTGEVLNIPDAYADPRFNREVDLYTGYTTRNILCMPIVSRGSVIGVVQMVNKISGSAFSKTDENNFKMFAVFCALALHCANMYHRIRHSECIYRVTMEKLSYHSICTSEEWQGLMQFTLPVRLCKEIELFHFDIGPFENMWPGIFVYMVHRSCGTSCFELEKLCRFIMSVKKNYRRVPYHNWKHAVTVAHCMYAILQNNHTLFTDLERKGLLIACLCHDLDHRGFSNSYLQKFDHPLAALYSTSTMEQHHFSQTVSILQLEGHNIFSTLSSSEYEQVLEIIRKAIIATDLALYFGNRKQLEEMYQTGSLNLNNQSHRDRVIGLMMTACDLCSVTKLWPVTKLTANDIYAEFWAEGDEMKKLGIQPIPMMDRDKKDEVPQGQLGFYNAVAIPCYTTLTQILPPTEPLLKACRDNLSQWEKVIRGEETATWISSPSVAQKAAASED
row,SMILES,IC50
1,Cn1ncc(NC(=O)c2nc(C3CC3)cnc2Nc2cncnc2)c1C(=O)NC1COC1,6.6 nM
2,CN(C)C(=O)c1c(NC(=O)c2nc(C3CC3)cnc2Nc2cncnc2)cnn1C,32.2 nM
3,CNC(=O)c1c(NC(=O)c2nc(C3CC3)cnc2Nc2cncnc2)cnn1CC(F)(F)F,27 nM
4,CN(C(=O)c1ncccc1NC(=O)c1nc(C2CC2)cnc1Nc1cncnc1)C1CCOCC1,425 nM
5,CN(CC(F)(F)F)C(=O)c1ncccc1NC(=O)c1nc(C2CC2)cnc1Nc1cncnc1,8.1 nM
6,CN(C(=O)c1ncccc1NC(=O)c1nc(C2CC2)cnc1Nc1cncnc1)C1CC1,26.8 nM
7,CC1CCCCN1C(=O)c1ncccc1NC(=O)c1nc(C2CC2)cnc1Nc1cncnc1 (centres undefined),15.9 nM
8,CNC(=O)c1nc(C)ncc1NC(=O)c1nc(C2CC2)cnc1Nc1cncnc1,19.3 nM
9,CNC(=O)c1ccc(F)c(F)c1NC(=O)c1nc(C2CC2)cnc1Nc1cncnc1,1.8 nM

# Compounds with a lower IC50, results first:
row,IC50,SMILES
1,1.5 nM,CC(CO)CNC(=O)c1c(NC(=O)c2nc(C3CC3)cnc2Nc2cncnc2)cnn1C (centres undefined)
2,0.5 nM,COCc1ccc(NC(=O)c2nc(C3CC3)cnc2Nc2cncnc2)c(C(=O)NCC(C)(C)O)n1
3,0.7 nM,COCCOc1ccc(NC(=O)c2nc(C3CC3)cnc2Nc2cncnc2)c(C(=O)NCC(C)(C)O)c1
4,0.7 nM,CC(C)(O)CNC(=O)c1cc(C#N)ccc1NC(=O)c1nc(C2CC2)cnc1Nc1cncnc1
5,0.4 nM,CNC(=O)c1cc(NC(C)=O)ccc1NC(=O)c1nc(C2CC2)cnc1Nc1cncnc1
